The values below come from article PMC11217349, “Development of Nurr1 agonists from amodiaquine by scaffold hopping and fragment growing” (Communications Chemistry, 2024).

Data set [1] concerns the target T1, human Nurr1 (hinge region and ligand binding domain) (Homo sapiens, UniProt P43354).
T1 construct: expressed in transfected cells; host or cells: HEK293T
Description: Gal4-Nurr1 hybrid reporter gene assay. To be noted: for max. activation: maximum effect vs. 0.1% DMSO control; for highest non-toxic concentration: Gal4-Nurr1 hybrid reporter gene assay. The data set is classed as cell-based. As for the experimental part:
Nurr1 modulation was determined in a Gal4 hybrid reporter gene assay in HEK293T cells (German Collection of Microorganisms and Cell Culture GmbH, DSMZ) using pFR-Luc (Stratagene, La Jolla, CA, USA; reporter), pRL-SV40 (Promega, Madison, WI, USA; internal control) and pFA-CMV-hNurr1-LBD[14], coding for the hinge region and ligand binding domain of the canonical isoform of human Nurr1. […] After 24 h, the medium was changed to Opti-MEM without supplements, and cells were transiently transfected using Lipofectamine LTX reagent (Invitrogen, Carlsbad, CA, USA) according to the manufacturer’s protocol. Five hours after transfection, cells were incubated with the test compounds in Opti-MEM supplemented with penicillin (100 U/mL), streptomycin (100 μg/mL), and 0.1% DMSO for 16 h before luciferase activity was measured using the Dual-Glo Luciferase Assay System (Promega) according to the manufacturer’s protocol on a Tecan Spark luminometer (Tecan Deutschland GmbH, Crailsheim, Germany). Firefly luminescence was divided by Renilla luminescence and multiplied by 1000 resulting in relative light units (RLU) to normalize for transfection efficiency and cell growth. Fold activation was obtained by dividing the mean RLU of the test compound by the mean RLU of the untreated control. All samples were tested in at least three biologically independent experiments in duplicates. For dose-response curve fitting and calculation of EC50 values, the equation “[Agonist] vs. response -- Variable slope (four parameters)” was used in GraphPad Prism (version 7.00, GraphPad Software, La Jolla, CA, USA). Selectivity profiling was performed with identical procedures using pFA-CMV-Nur77-LBD[14], pFA-CMV-NOR-1-LBD[14], pFA-CMV-THRα-LBD[51], pFA-CMV-RARα-LBD[52], pFA-CMV-PPARα-LBD[53], pFA-CMV-PPARγ-LBD[53], pFA-CMV-PPARδ-LBD[53], pFA-CMV-LXRα-LBD[54], pFA-CMV-FXR-LBD[55] and pFA-CMV-hRXRα-LBD[56].

Data set [2] concerns the target T2, Nurr1 LBD (Homo sapiens, UniProt P43354).
T2 construct: Nurr1 LBD protein (5–30 µM, expressed as described previously[21]); made in house
Kind of data set: Isothermal titration calorimetry (ITC). The data set is classed as binding. The note with it: 25 °C. As for the experimental part: ITC experiments were conducted on an Affinity ITC instrument (TA Instruments, New Castle, DE) at 25 °C with a stirring rate of 75 rpm. Nurr1 LBD protein (5–30 µM, expressed as described previously[21]) in buffer (20 mM Tris pH 7.5, 100 mM NaCl, 5% glycerol) containing 1–4% DMSO was titrated with the test compounds (30–150 μM in the same buffer containing 1-4% DMSO) in 26 injections (1 × 1 µL, 25 × 3-4 μL) with an injection interval of 120-150 s. As control experiments, the test compounds were titrated to the buffer, and the buffer was titrated to the Nurr1 LBD protein under otherwise identical conditions. Results were analyzed using NanoAnalyze software (version 3.11.0, TA Instruments, New Castle, DE) with independent binding models.
On the technique in general: ITC needs no label: the signal is the heat of the interaction.

Data set [3] in a line: Microsomal stability. The data set is classed as in vitro ADME, rat. To be noted: incubation of 36 with rat liver microsomes, listed as 36-NH2. As for the experimental part:
To determine microsomal stability, test compounds (10 μM) were incubated in 100 mM potassium phosphate buffer at pH 7.4 (total volume of 100 µL) containing 0.5 mg/mL male rat liver microsomes (Sprague-Dawley, no. M9066, Merck KGaA, Darmstadt) and 1 mM NADPH for 0, 15, 30, or 60 min. At the end of the incubation time, microsomal activity was terminated by the addition of 500 µL MeCN and subsequent centrifugation at 1700 g for 5 min. A reaction mixture containing heat-inactivated microsomes (95 °C, 10 min) was prepared as a control for each compound. 5 µL supernatant of each sample was analyzed and the remaining concentrations of the respective test compounds at each time point were determined by LC-MS/MS on an API-3200-QTrap (Sciex) with an Agilent Technologies 1100 series setup including a binary pump (G1311A), a degasser (G1322A), and a Shimadzu SIL 20 A HT autosampler under the control of Analyst 1.6 (Sciex). A XBridge BEH C18 (3.5 µm, 150 mm×3 mm, Waters, protected with a 0.5 µm frit) stationary phase was used in combination with a gradient method starting with 0.1% formic acid in water (A) and MeCN (B) as mobile phase (A:B = 80:20) for 6 min going to A: B = 50:50 after 8 min. 5 µL of supernatant diluted in mobile phase starting conditions was loaded onto the column, separated at a flow rate of 400 µL/min, and detected and quantified per Area of MRM (multiple reaction monitoring) with the following transitions: m/z 381.797/145.000 (34); m/z 395.125/158.200 (36); m/z 409.822/131.000 (41); m/z 407.838/171.100 (42).
On the technique in general: Liver microsomes are a subcellular fraction often used to study metabolism.

Setting [4] is: Gal4-Nurr1 hybrid reporter, HEK293T, mean ± SD, n ≥ 3, read-out: EC50(Nurr1).
[5] abbreviates: Table 2, Nurr1 agonism, read-out: pEC50 (converted).
The mark [6] stands for this setting: Gal4-Nurr1 hybrid reporter, HEK293T, mean ± SD, n ≥ 3.

“And” between values parts separate entries of the source, which are not always exact repeats. Identical values can stand only once. Like-named read-outs stand apart in the source and are kept apart here. A value given as a limit tells only on which side of the number the result lay.

T2 sequence (P43354 360-595 limits assumed): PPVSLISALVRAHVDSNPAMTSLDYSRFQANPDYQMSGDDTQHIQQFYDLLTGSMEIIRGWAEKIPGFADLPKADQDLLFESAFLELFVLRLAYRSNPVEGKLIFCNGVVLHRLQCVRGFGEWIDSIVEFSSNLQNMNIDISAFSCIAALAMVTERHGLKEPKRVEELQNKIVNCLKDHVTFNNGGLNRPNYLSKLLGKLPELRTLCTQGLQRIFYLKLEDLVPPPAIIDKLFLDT
T1 sequence (P43354 360-595 limits assumed): as above

As to `Cc1nc2c(Cl)cccn2c1N` [Compound 8, 8-Chloro-2-methylimidazo[1,2-a]pyridine-3-amine], the EC50 in data set [1] (setting [4]) is 7000 ± 1000 nM. The max. activation in data set [1] (mean ± SD, n ≥ 3) is reported as 2.0 ± 0.1 fold. Further, the dissociation constant Kd (in general, the free concentration of one partner at which half of the binding sites on the other are occupied at equilibrium, for simple one-to-one binding) in data set [2] came to 2700 nM.
As to `Nc1c(-c2ccc(Cl)cc2)nc2c(Cl)cccn12` [Compound 17], in data set [1] (setting [4]), the EC50 turned out to be 15000 ± 3000 nM. The molecule also had a max. activation in data set [1] (mean ± SD, n ≥ 3) of 1.7 ± 0.2 fold.
Consider `Cc1nc2c(Cl)cccn2c1NC(=O)c1ccc(-c2ccccc2)s1` [Compound 28], for which, in data set [1] (setting [4]), the EC50 worked out at 3200 ± 400 nM. This molecule registered a max. activation in data set [1] (mean ± SD, n ≥ 3) of 2.1 ± 0.1 fold.
Turning to `CNc1ccc(-c2ccc(C(=O)Nc3c(C)nc4c(Cl)cccn34)o2)cc1` [Compound 35], in data set [1] (setting [4]), the EC50 was 300 ± 20 nM. The max. activation in data set [1] (mean ± SD, n ≥ 3) came to 1.8 ± 0.1 fold.
Take `Nc1cnc2c(Cl)cccn12` [Compound 12, 3-Amino-8-chloroimidazo[1,2-a]pyridine]: the Kd in data set [2] was found to be 5100 nM.
As to `CCN1CCN(c2cc(N3CCN(CC)CC3)nc(NCCNc3ccnc4cc(Cl)ccc34)n2)CC1` [Compound 1, reference compound], the EC50 in data set [1] (setting [5]) was 20000 nM.
As for `Nc1c(-c2cccc(Cl)c2)nc2c(Cl)cccn12` [Compound 18], the EC50 in data set [1] (setting [4]) is 9000 ± 3000 nM. The max. activation in data set [1] (mean ± SD, n ≥ 3) worked out at 1.7 ± 0.1 fold.
For the molecule `Cc1nc2c(Cl)cccn2c1NC(=O)c1ccc(-c2ccc(Cl)cc2)o1` [Compound 26], the EC50 in data set [1] (setting [4]) was determined as 1600 ± 500 nM. The molecule further displayed a max. activation in data set [1] (mean ± SD, n ≥ 3) of 1.8 ± 0.1 fold. In data set [2], this molecule displayed a Kd of 700 nM.
For `Cc1nc2c(Cl)cccn2c1NC(=O)c1ccc(-c2ccc(N3CCOCC3)cc2)o1` [Compound 39], in data set [1] (HEK293T), the highest non-toxic concentration result is “inactive (10 µM^c)”. The “EC50(Nurr1)” value in data set [1] (setting [6]) is “inactive (10 µM^c)”.
With `Nc1c(-c2ccc(Cl)c(Cl)c2)nc2c(Cl)cccn12` [Compound 24, 8-Chloro-2-(3,4-dichlorophenyl)imidazo[1,2-a]pyridine-3-amine], the EC50 in data set [1] (setting [5]) was 398 nM. Besides, the max. activation in data set [1] (mean ± SD, n ≥ 3) was 1.8 fold and 1.8±0.1 fold. Further, the affinity in data set [2], expressed as Kd, was 700 nM.
In the case of `Nc1c(-c2ccccc2)nc2c(Cl)cccn12` [Compound 15], the EC50 in data set [1] (setting [4]) came to 4000 ± 2000 nM. The max. activation in data set [1] (mean ± SD, n ≥ 3) is on record as 1.4 ± 0.1 fold.
On to `Cc1cccc(-c2nc3c(Cl)cccn3c2N)c1` [Compound 21], for which the max. activation in data set [1] (mean ± SD, n ≥ 3) is recorded as < 1.2-fold act.
As to `Cc1nc2c(Cl)cccn2c1NC(=O)c1ccc(-c2ccccc2)cc1` [Compound 30], in data set [1] (HEK293T), the highest non-toxic concentration result was “inactive (10 µM^b)”. Moreover, the “EC50(Nurr1)” value in data set [1] (setting [6]) was “inactive (10 µM^b)”.
In the case of `O=C(Nc1ccnc2cc(Cl)ccc12)c1ccc(-c2ccc(Cl)cc2)o1` [Compound 4, reference compound], in data set [1] (setting [5]), the EC50 was 15800 nM.
As to `Nc1c(-c2ccccc2Cl)nc2c(Cl)cccn12` [Compound 19], the “EC50(Nurr1)” value in data set [1] (setting [6]) is “inactive (100 µM)”.
With `Cc1ccc(-c2nc3c(Cl)cccn3c2N)cc1` [Compound 20], the EC50 in data set [1] (setting [4]) was determined as 12000 ± 2000 nM. The molecule also had a max. activation in data set [1] (mean ± SD, n ≥ 3) of 2.0 ± 0.2 fold.
Regarding `Cc1nc2c(Cl)cccn2c1NC(=O)c1ccc(-c2ccc(N3CCN(C)CC3)cc2)o1` [Compound 40], the highest non-toxic concentration result in data set [1] (HEK293T) was “inactive (10 µM^d)”. The “EC50(Nurr1)” value in data set [1] (setting [6]) is “inactive (10 µM^d)”.
As for `CN(C)c1ccc(-c2ccc(C(=O)Nc3c(-c4ccc(Cl)c(Cl)c4)nc4c(Cl)cccn34)o2)cc1` [Compound 37, N-(8-Chloro-2-(3,4-dichlorophenyl)imidazo[1,2-a]pyridin-3-yl)-5-(4-(dimethylamino)phenyl)furan-2-carboxamidearboxamide], the EC50 in data set [1] (setting [4]) was 40 ± 10 nM. Also, the max. activation in data set [1] (mean ± SD, n ≥ 3) was 1.53±0.04 fold. Moreover, in data set [2], binding was characterised by a dissociation constant (Kd) of 80 nM.
In the case of `Nc1c(-c2ccc(C(F)(F)F)cc2)nc2c(Cl)cccn12` [Compound 22], in data set [1] (mean ± SD, n ≥ 3), the max. activation is given as < 1.2-fold act.
For `Cc1nc2cccc(Cl)c2[nH]1` [Compound 7, 4-Chloro-2-methyl-benzimidazole], the “EC50(Nurr1)” value in data set [1] (setting [6]) is “inactive (100 µM)”.
On to `Nc1c(-c2cccc(C(F)(F)F)c2)nc2c(Cl)cccn12` [Compound 23], for which the max. activation in data set [1] (mean ± SD, n ≥ 3) is < 1.2-fold act.
`Cc1nc2c(Cl)cccn2c1NC(=O)c1ccc(-c2ccc(OC(F)(F)F)cc2)o1` [Compound 33]: the EC50 in data set [1] (setting [4]) is 800 ± 200 nM. In data set [1] (mean ± SD, n ≥ 3), this molecule came in with a max. activation of 2.0 ± 0.1 fold.
As to `Cc1cc(N)c2cccc(Cl)c2n1` [Compound 3, 8-chloro-2-methylquinolin-4-amine, reference compound], the max. activation in data set [1] (mean ± SD, n ≥ 3) was 1.7 ± 0.1 fold.
For `Cc1nc2c(Cl)cccn2c1NC(=O)c1ccc(-c2ccccc2)o1` [Compound 27], the EC50 in data set [1] (setting [4]) was 4000 ± 1000 nM. Moreover, the max. activation in data set [1] (mean ± SD, n ≥ 3) worked out at 2.1 ± 0.1 fold.
Turning to `Cc1[nH]c2c(Cl)cccc2c1N` [Compound 6, 7-chloro-2-methyl-1H-indol-3-amine], the “EC50(Nurr1)” value in data set [1] (setting [6]) is “unstable”.
Regarding `Cc1nc2c(Cl)cccn2c1NC(=O)c1ccc(-c2ccc(N)cc2)o1` [Compound 38], the “AUC x10^5 (LC-MS peak area of 36 and its demethylated metabolites)” value was 0.0604 x10^5 and 0.0553 x10^5 and 0.0561 x10^5 and 0.0573 x10^5 in data set [3] (time 0 min); 1.99 x10^5 and 2.08 x10^5 and 1.81 x10^5 and 1.95 x10^5 in data set [3] (time 15 min); 4.34 x10^5 and 4.54 x10^5 and 4 x10^5 and 5.57 x10^5 in data set [3] (time 60 min). The max. activation in data set [1] (mean ± SD, n ≥ 3) is listed as <1.2-fold activation.
On to `Cc1nc2cc(Cl)ccn2c1N` [Compound 9], for which the “EC50(Nurr1)” value in data set [1] (setting [6]) was “inactive (100 µM)”. Besides, in data set [2], the “Kd (Nurr1 LBD)” value was “weak binding”.
For `Cc1ccc(-c2ccc(C(=O)Nc3c(C)nc4c(Cl)cccn34)o2)cc1` [Compound 32], the EC50 in data set [1] (setting [4]) was determined as 130 ± 20 nM. The max. activation in data set [1] (mean ± SD, n ≥ 3) turned out to be 2.0 ± 0.2 fold.
Take `CC(C)c1nc2c(Cl)cccn2c1N` [Compound 14]: in data set [1] (mean ± SD, n ≥ 3), the max. activation is reported as < 1.2-fold act.
`Nc1c(-c2ccco2)nc2c(Cl)cccn12` [Compound 16]: in data set [1] (mean ± SD, n ≥ 3), the max. activation was < 1.2-fold act.
Consider `Cc1nc2c(Cl)cccn2c1NC(=O)c1ccc(-c2ccc(C(F)(F)F)cc2)o1` [Compound 31], for which the EC50 in data set [1] (setting [4]) was determined as 1100 ± 300 nM. Further, the max. activation in data set [1] (mean ± SD, n ≥ 3) is 1.8 ± 0.1 fold.
`Cc1ccc(-c2nc3c(Cl)cccn3c2N)cc1C` [Compound 25]: the EC50 in data set [1] (setting [4]) was determined as 14000 ± 2000 nM. This molecule also yielded a max. activation in data set [1] (mean ± SD, n ≥ 3) of 1.6 ± 0.1 fold.
